pIC50: −log10 of the molar value. A value given as a limit tells only on which side of the number the result lay.

Broadly, the pIC50 is the negative decadic logarithm of the IC50, by convention in mol/L.

The target in assay [1] is T1, Human M4 (Homo sapiens, UniProt P08173).
T1 construct: expressed in transfected cells; host or cells: CHO-K1 (ATCC), stably co-expressing chimeric G protein Gqi5
T1 sequence (P08173 1-479): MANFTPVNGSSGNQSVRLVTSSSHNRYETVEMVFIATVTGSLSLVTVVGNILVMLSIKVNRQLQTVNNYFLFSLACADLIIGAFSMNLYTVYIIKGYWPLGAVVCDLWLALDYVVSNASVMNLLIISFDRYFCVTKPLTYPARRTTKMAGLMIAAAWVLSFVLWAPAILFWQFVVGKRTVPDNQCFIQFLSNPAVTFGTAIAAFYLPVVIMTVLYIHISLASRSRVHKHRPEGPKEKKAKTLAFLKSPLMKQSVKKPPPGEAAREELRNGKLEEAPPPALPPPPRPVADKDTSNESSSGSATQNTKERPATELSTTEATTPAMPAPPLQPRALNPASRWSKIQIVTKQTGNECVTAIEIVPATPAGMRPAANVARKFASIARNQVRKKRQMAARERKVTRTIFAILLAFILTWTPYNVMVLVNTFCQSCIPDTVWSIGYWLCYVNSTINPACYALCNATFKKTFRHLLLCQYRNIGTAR
The assay is described as follows: mAChR M4 cell-based functional assay (calcium flux, antagonist mode vs EC80 acetylcholine), human M4/Gqi5/CHO-K1 cells. Particulars: for remaining activity at 30 µM: CHO-K1, % ACh maximum at 30 μM, human M4, read-out: Human M4 Emin (%); for pIC50: decrease of response elicited by EC80 acetylcholine, human M4/Gqi5 CHO-K1 cells. The procedure: (§1) Human or rat M4 cDNA, along with the chimeric G protein Gqi5, were transfected into Chinese hamster ovary (CHO-K1) cells purchased from the American Type Culture Collection using Lipofectamine2000. M4/Gqi5/CHO cells were grown in Ham's F-12 medium containing 10% heat-inactivated fetal bovine serum (FBS), 20 mM HEPES, 500 μg/mL G418 sulfate, and 200 μg/mL Hygromycin B.
(§2) For high throughput measurement of agonist-evoked increases in intracellular calcium, CHO-K1 cells stably expressing muscarinic receptors were plated in growth medium lacking G418 and hygromycin at 15,000 cells/20 μL/well in Greiner 384-well black-walled, tissue culture (TC)-treated, clear-bottom plates (VWR). Cells were incubated overnight at 37° C. and 5% CO2. The next day, cells were washed using an ELX 405 (BioTek) with assay buffer; the final volume was then aspirated to 20 μL. Next, 20 μL of a 2.3 μM stock of Fluo-4/acetoxymethyl ester (Invitrogen, Carlsbad, Calif.), prepared as a 2.3 mM stock in DMSO and mixed in a 1:1 ratio with 10% (w/v) Pluronic F-127 and diluted in assay buffer, was added to the wells and the cell plates were incubated for 50 min at 37° C. and 5% CO2. Dye was removed by washing with the ELX 405 and the final volume was aspirated to 20 μL. Compound master plates were formatted in a 10 point concentration-response curve (CRC) format (1:3 dilutions) in 100% DMSO with a starting concentration of 10 or 1 mM using a BRAVO liquid handler (Agilent). Test compound CRCs were then transferred to daughter plates (240 nL) using the Echo acoustic plate reformatter (Labcyte, Sunnyvale, Calif.) and then diluted into assay buffer (40 μL) to a 2× stock using a Thermo Fisher Combi (Thermo Fisher Scientific, Waltham, Mass.).
(§3) Calcium flux was measured using the Functional Drug Screening System (FDSS) 6000 or 7000 (Hamamatsu Corporation, Tokyo, Japan) as an increase in the fluorescent static ratio. Compounds were applied to cells (20 μL, 2×) using the automated system of the FDSS at 2 seconds into the protocol and the data were collected at 1 Hz. At 143 s, 10 μL of an EC20 concentration of the muscarinic receptor agonist acetylcholine was added (5×), followed by the addition of 12 μL of an EC80 concentration of acetylcholine at the 268 s time point (5×). Agonist activity was analyzed as a concentration-dependent increase in calcium mobilization upon compound addition. Positive allosteric modulator activity was analyzed as a concentration-dependent increase in the EC20 acetylcholine response. Antagonist activity was analyzed as a concentration-dependent decrease in the EC80 acetylcholine response; for the purposes of the tables herein, an IC50 (inhibitory concentration 50) was calculated as a concentration-dependent decrease of the response elicited by an EC80 concentration of acetylcholine. Concentration-response curves were generated using a four-parameter logistical equation in XLFit curve fitting software (IDBS, Bridgewater, N.J.) for Excel (Microsoft, Redmond, Wash.) or Prism (GraphPad Software, Inc., San Diego, Calif.) or the Dotmatics software platform (Dotmatics, Bishop's Stortford, UK).
(§4) Compounds were synthesized as described above. Activity (IC50 and Emin) was determined in the mAChR M4 cell-based functional assay as described above and the data are shown in Table 2.
(In general: A change in cytosolic calcium serves as a functional read-out for many receptors and channels.)

Assay [2] concerns the target T2, Rat M4 (Rattus norvegicus, UniProt P08485).
T2 construct: expressed in transfected cells; host or cells: CHO-K1 (ATCC), stably co-expressing chimeric G protein Gqi5
T2 sequence (P08485 1-478): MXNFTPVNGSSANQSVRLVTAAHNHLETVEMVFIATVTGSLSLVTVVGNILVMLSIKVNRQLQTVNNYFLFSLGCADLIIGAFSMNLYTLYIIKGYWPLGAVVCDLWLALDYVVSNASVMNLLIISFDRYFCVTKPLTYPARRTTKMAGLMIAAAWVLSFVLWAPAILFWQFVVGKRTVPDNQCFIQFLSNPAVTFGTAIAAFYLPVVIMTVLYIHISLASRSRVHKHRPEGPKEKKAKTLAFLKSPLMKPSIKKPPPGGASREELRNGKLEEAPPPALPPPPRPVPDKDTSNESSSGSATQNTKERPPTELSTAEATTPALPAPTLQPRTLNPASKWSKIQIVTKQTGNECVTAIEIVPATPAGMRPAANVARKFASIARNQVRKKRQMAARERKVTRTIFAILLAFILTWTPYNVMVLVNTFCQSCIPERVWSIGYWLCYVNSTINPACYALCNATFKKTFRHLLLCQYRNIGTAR
Description: mAChR M4 cell-based functional assay (calcium flux, antagonist mode vs EC80 acetylcholine), rat M4/Gqi5/CHO-K1 cells. To be noted: for remaining activity at 30 µM: CHO-K1, % ACh maximum at 30 μM, rat M4, read-out: Rat M4 Emin (%); for pIC50: decrease of response elicited by EC80 acetylcholine, rat M4/Gqi5 CHO-K1 cells. The procedure:
as §1, §2, §3, §4

Regarding `O=S(=O)(c1ccccc1)c1ccc(N[C@H]2C[C@@H]3CN(Cc4ccccn4)C[C@@H]3C2)nn1` [compound 25, (3aR,5s,6aS)-N-(6-(phenylsulfonyl)pyridazin-3-yl)-2-(pyridin-2-ylmethyl)octahydrocyclopenta[c]pyrrol-5-amine], in assay [1], the remaining activity at 30 µM was determined as 6% and the pIC50 was 6.36. For the same compound, in assay [2], the remaining activity at 30 µM was found to be 26% and the pIC50 is less than 5.00.
Taken in the same sequence, the figures for `O=S(=O)(c1ccccc1)c1ccc(N[C@H]2C[C@@H]3CN(Cc4ccc5c(c4)OC(F)(F)O5)C[C@@H]3C2)nn1` [compound 26, (3aR,5s,6aS)-2-((2,2-difluorobenzo[d][1,3]dioxol-5-yl)methyl)-N-(6-(phenylsulfonyl)pyridazin-3-yl)octahydrocyclopenta[c]pyrrol-5-amine] were 3%, 6.00, 14% and 5.52.
Taken in the same sequence, the figures for `O=S(=O)(c1ccccc1)c1ccc(N[C@H]2C[C@@H]3CN(Cc4ccc5c(c4)OCO5)C[C@@H]3C2)nn1` [compound 27, (3aR,5s,6aS)-2-(benzo[d][1,3]dioxol-5-ylmethyl)-N-(6-(phenylsulfonyl)pyridazin-3-yl)octahydrocyclopenta[c]pyrrol-5-amine] were 2%, 7.89, 4% and 6.10.
For `[O-][S+](c1ccccc1)c1ccc(N[C@H]2C[C@@H]3CN(CC4CCOCC4)C[C@@H]3C2)nn1` (stereo partly drawn) [compound 28, (3aR,5s,6aS)-N-(6-(phenylsulfinyl)pyridazin-3-yl)-2-((tetrahydro-2H-pyran-4-yl)methyl)octahydrocyclopenta[c]pyrrol-5-amine], in that order: 5%, 7.24, 8% and 6.95.
With `[O-][S+](c1ccccc1)c1ccc(N[C@H]2C[C@@H]3CN(Cc4ccc5c(c4)OCO5)C[C@@H]3C2)nn1` (stereo partly drawn) [compound 30, (3aR,5s,6aS)-2-(benzo[d][1,3]dioxol-5-ylmethyl)-N-(6-(phenylsulfinyl)pyridazin-3-yl)octahydrocyclopenta[c]pyrrol-5-amine], the remaining activity at 30 µM in assay [1] and in assay [2] was 4% in each case. Moreover, the pIC50 was 8.11 in assay [1] and 6.71 in assay [2].
As to `Cc1cc(CN2C[C@H]3C[C@H](Nc4ccc(S(=O)(=O)c5ccccc5)nn4)C[C@H]3C2)ccc1F` [compound 31, (3aR,5s,6aS)-2-(4-fluoro-3-methylbenzyl)-N-(6-(phenylsulfonyl)pyridazin-3-yl)octahydrocyclopenta[c]pyrrol-5-amine], in assay [1], the remaining activity at 30 µM worked out at 4% and the pIC50 is 6.29. In assay [2], the remaining activity at 30 µM was determined as 3% and the negative logarithm of the IC50 (pIC50) was 5.94.
Taken in the same sequence, the figures for `Cc1cc(CN2C[C@H]3C[C@H](Nc4ccc([S+]([O-])c5ccccc5)nn4)C[C@H]3C2)ccc1F` (stereo partly drawn) [compound 32, (3aR,5s,6aS)-2-(4-fluoro-3-methylbenzyl)-N-(6-(phenylsulfinyl)pyridazin-3-yl)octahydrocyclopenta[c]pyrrol-5-amine] were 3%, 6.62, 3% and 6.01.
With `O=S(=O)(c1ccc(N[C@H]2C[C@@H]3CN(Cc4ccccn4)C[C@@H]3C2)nn1)C1CCCCC1` [compound 33, (3aR,5s,6aS)-N-(6-(cyclohexylsulfonyl)pyridazin-3-yl)-2-(pyridin-2-ylmethyl)octahydrocyclopenta[c]pyrrol-5-amine], the remaining activity at 30 µM in assay [1] came to 5%; in assay [2], 14%. In addition, the pIC50 was 6.98 in assay [1] and 5.35 in assay [2].
On to `O=S(=O)(c1ccc(N[C@H]2C[C@@H]3CN(CC4CCOCC4)C[C@@H]3C2)nn1)C1CCCCC1` [compound 34, (3aR,5s,6aS)-N-(6-(cyclohexylsulfonyl)pyridazin-3-yl)-2-((tetrahydro-2H-pyran-4-yl)methyl)octahydrocyclopenta[c]pyrrol-5-amine], for which the figures for the remaining activity at 30 µM in assay [1] and in assay [2] were 4% and 5%, respectively. In addition, the results for the pIC50 in assay [1] and in assay [2] were 8.11 and 6.92, respectively.
For `Cc1cc(CN2C[C@H]3C[C@H](Nc4ccc(S(=O)(=O)C5CCCCC5)nn4)C[C@H]3C2)nn1C` [compound 35, (3aR,5s,6aS)-N-(6-(cyclohexylsulfonyl)pyridazin-3-yl)-2-((1,5-dimethyl-1H-pyrazol-3-yl)methyl)octahydrocyclopenta[c]pyrrol-5-amine], in that order: 6%, 19%, 6.74 and 5.32.
On to `CC1(C)CC(N2C[C@H]3C[C@H](Nc4ccc(S(=O)(=O)C5CCCCC5)nn4)C[C@H]3C2)CCO1` (stereo partly drawn) [compound 36, (3aR,5s,6aS)-N-(6-(cyclohexylsulfonyl)pyridazin-3-yl)-2-(2,2-dimethyltetrahydro-2H-pyran-4-yl)octahydrocyclopenta[c]pyrrol-5-amine], for which, in assay [1], the remaining activity at 30 µM was 5% and the pIC50 is 7.29. In addition, in assay [2], the remaining activity at 30 µM was determined as 7% and the negative logarithm of the IC50 (pIC50) is 6.34.
Take `O=S(=O)(c1ccc(N[C@H]2C[C@@H]3CN(Cc4ccc5c(c4)OCO5)C[C@@H]3C2)nn1)C1CCCCC1` [compound 37, (3aR,5s,6aS)-2-(benzo[d][1,3]dioxol-5-ylmethyl)-N-(6-(cyclohexylsulfonyl)pyridazin-3-yl)octahydrocyclopenta[c]pyrrol-5-amine]: the remaining activity at 30 µM in assay [1] and in assay [2] was 4% throughout. For the same compound, the figures for the negative logarithm of the IC50 (pIC50) in assay [1] and in assay [2] were 8.42 and 6.80, respectively.

The values are drawn from patent US20230183218A1, “CONDENSED SUBSTITUTED HYDROPYRROLES AS ANTAGONISTS OF THE MUSCARINIC ACETYLCHOLINE RECEPTOR M4” (Vanderbilt University, priority 2020, published 2023).
